Values quoted from earlier work in patent US20050267197A1 (priority 2004, published 2005).
One block for each compound: values may come before it.

Assays:
[1] = in vivo
[2] = in vivo; remark: listed apart in the source

Compound: COCc1c(C(C)C)nc(C(C)C)c(/C=C/[C@@H](O)C[C@@H](O)CC(=O)O)c1-c1ccc(F)cc1 [Baycol®, cervastatin]
deaths linked to the drug (at recommended initial dose (0.4 mg/day) as well as highest dose (0.8 mg/day)): 31 deaths

Compound: CC(C)c1nc(N(C)S(C)(=O)=O)nc(-c2ccc(F)cc2)c1/C=C/[C@@H](O)C[C@@H](O)CC(=O)O [Crestor®, rosuvastatin]
cases of serious side effects cited (cited by consumer advocacy group, March 2004): 16 cases

patients affected by flushing (redness) of the face and neck [1]: more than three quarters of patients
Compound: O=C(O)c1cccnc1 [Niacin]
patients discontinuing treatment because of adverse effects [1]: more than 40%
increase of blood levels of HDL cholesterol [2]: up to 35%
reduction of total cholesterol [2]: up to 15%
reduction of triglyceride levels [2]: up to 30%
